US10471028B2, “Small molecule efflux pump inhibitors” (UNIVERSITY OF ROCHESTER, priority 2014, dated 2019)

Legend:
[1] = system: A. baumannii strain 98-37-09; assay: MEC determination: potentiation of minocycline toward serum grown A. baumannii; format: cell-based, Acinetobacter baumannii; conditions: for Log-reduction Colony Forming Units (ml^−1): 1×MEC of compound plus minocycline in serum, versus minocycline alone, plating; for MEC: lowest concentration inhibiting growth in 100% human serum with 0.5 μg ml^−1 minocycline, 48 hr
Method: The TimTec ActiProbe-25K diversity-set and Natural Product compound libraries (29,900 compounds total; TimTec, Newark, Del.) were initially screened for putative efflux pump inhibitors by identifying compounds that potentiated the antimicrobial property of a sub-inhibitory concentration of minocycline toward A. baumannii grown in human serum. To do so, A. baumannii strain 98-37-09 was grown for 16 hours in LB medium at 37° C. on a rotary shaker at 225 rpm. Approximately 1×10^5 CFU were then transferred to individual wells of a 96-well round-bottom plate (Corning Costar, Tewksbury, Mass.) containing 100 μL of human serum supplemented with of minocycline (0.5 μg mL^−1; 0.5× minimum inhibitory concentration in serum) and individual members of the Timtec ActiProbe or Natural product library (50 μM). Plates were then incubated at 37° C. for 48 hours. Growth was measured as a function of turbidity. Putative efflux pump inhibitors were identified as compounds that inhibited A. baumannii growth in human serum containing minocycline and were subsequently retested in triplicate, as indicated above. Untreated A. baumannii grown in serum supplemented with minocycline+/−PAβN served as positive and negative controls, respectively. […] Repeat testing in which well constituents were serial diluted and plated on LB agar plates validated that 85 compounds did indeed limit A. baumannii growth in serum supplemented with minocycline, reducing the number of viable colony forming units between 2-6 log cfu in comparison to minocycline alone treated cells.
The MEC was defined as the lowest concentration of test compound required to inhibit the growth of A. baumannii in serum in the presence of 0.5 μg ml^−1 minocycline. Plating confirmed that addition of 1×MEC of each compound elicited ≥1.9-log reduction in A. baumannii cells grown in serum supplemented with minocycline alone (see Table 1).

[2] = system: A. baumannii strain 98-37-09; assay: Cellular accumulation of minocycline (HPLC, triple-quadrupole MS); format: cell-based, Acinetobacter baumannii; conditions: human serum with 0.5 μg mL^−1 minocycline plus test compound (0.5×MEC, 1×MEC), 48 hours
Method: High pressure liquid chromatography and triple-quadrupole mass spectrometry were used to measure the A. baumannii intracellular levels of minocycline during growth in human serum in the absence and presence of each putative efflux pump inhibitor. […] Cultures were incubated for 48 hours with shaking, at which point an aliquot was removed, serially diluted, and plated to determine the number of viable CFU per mixture. The remainder of the cells were pelleted by centrifugation at 900×g at 4° C., washed twice in PBS, mechanically lysed with a FastPrep cell disrupter (MP Biomedicals, Santa Ana, Calif.) for 20 seconds at 5 m s^−1 and the cellular debris was pelleted via centrifugation at 900×g and 4° C. The amount of minocycline present within the supernatant of ruptured cells was measured. Briefly, doxycycline (0.5 μg mL^−1) was first added to each supernatant to serve as an internal control to account for sample-to-sample preparation variability. The supernatant was then combined with acetonitrile (ACN) at a 1:10 ratio and centrifuged at 16,000×g, at 4° C., to collect minocycline and doxycycline. […] residual liquid was evaporated in a speed vacuum for 2 hours at 8,000×g. To quantify the amount of antibiotics retained, sample materials were suspended in 50% acetonitrile, filtered through a 0.2 μm low protein binding hydrophilic membrane (Millipore, Billerica, Mass.) then separated on Shimadzu high performance liquid chromatography instrument (Fisher Scientific) using a BetaBasic C18 reverse phase column (Thermo Scientific). Separation was carried out with two mobile phase solutions consisting of solution (A) water with 0.1% formic acid and solution (B) 100% ACN. The gradient profile of the chromatography runs was as follows: from 0 to 0.1 min 8% solution B, ramp step wise (37% to 60% solution B) from 0.1 to 6.5 min then holding for one minute before ramping down from 60% to 10% from 7.5 to 8 min. This was followed a hold at 10% solution B for one minute. […] The column was equilibrated in 8% solution B at 40° C. and the flow rate was set to 0.2 mL min^−1. Mass spectrometry analysis of fractions was carried out using a Thermo TSQ Quantum Ultra triple quadrupole mass spectrometer (Fisher Scientific). Data were analyzed using Xcalibur software (Thermo Scientific); the following parameters were used to detect minocycline and the internal control doxycycline: 458.208 m/z→282.971 m/z (collision energy=43, tube lens=119) for minocycline and 445.144 m/z→266.900 m/z (collision energy=39, tube lens=127) for doxycycline. Analysis of the raw data was conducted by using the area under the curve calculations with the Genesis algorithm to determine the concentration in each sample. The difference between the peak intensity and the y intercept of pre-established minocycline and doxycycline standard curves was divided by the slope of the standard curve to quantify the amount of minocycline within each sample. The total concentration of minocycline within each cell was calculated by normalizing to the number of cells within each corresponding culture.

Structure (SMILES) | Log-reduction Colony Forming Units (ml^−1) [1] [log] | MEC [1] [µg/mL] | Minocylcine Per Cell (femtomoles cell^−1) [2] [femtomoles cell^−1]
C/C(Cn1nnc([N+](=O)[O-])n1)=N\NC(=O)CC#N [ST025773] | 8.00 | 32 | 1.04E−07
NS(=O)(=O)c1ccc(/N=C/c2ccccc2O)cc1 [ST009655] | 6.67 | 2 | 2.61E−07
CCCCCCCN1C(=O)/C(=c2\sc3n(c2=O)C(c2ccc(OC(=O)c4ccco4)cc2)C(C(=O)OC)=C(C)N=3)c2ccccc21 (stereo not drawn) [ST029434] | 3.02 | 64 | 1.73E−08
N#CC1=C(N)OC2=C(C(=O)CCC2)C1c1c(Cl)cccc1Cl (stereo not drawn) [ST009850] | 2.47 | 2 | 7.25E−08
O=C(N/N=C/c1cccs1)c1ccncc1 [ST010260] | 2.66 | 16 | 3.27E−08
COc1ccc(-c2c3c([nH]c(=O)c2C#N)CCCCC3)cc1 [ST060355] | 6.94 | 32 | 1.23E−08
NNC(=O)CSCc1ccc(Cl)cc1 [ST020992] | 7.43 | 2 | 1.53E−07
CCN(CC)S(=O)(=O)c1ccc(NC(=O)C2CC(=O)N(c3ccc(OC)cc3)C2)cc1 (stereo not drawn) [ST059822] | 6.23 | 4 | 1.36E−07
CCOc1cc(C(=O)N2CC(=O)Nc3ccccc32)cc(OCC)c1OCC [ST059010] | 6.11 | 32 | 3.78E−08
Cc1cc(O)c(C(C)C)cc1C1(c2cc(C(C)C)c(O)cc2C)OC(=O)c2ccccc21 [ST009495] | 2.23 | 2 | 4.7E−08
CCOC(=O)C1=C(N)OC2=C(C(=O)CCC2)C1c1sccc1C (stereo not drawn) [ST009847] | 4.97 | 2 | 2.54E−07
Cc1ccc(/C=N/c2ccc(S(N)(=O)=O)cc2)cc1 [ST009696] | 5.67 | 4 | 8.2E−09
CCOC(=O)C1=C(CN2CCCCC2)NC(=O)NC1c1ccc2c(c1)OCO2 (stereo not drawn) [ST058478] | 6.33 | 64 | 1.52E−07
Nc1nnc(SCC(=O)N2CCCC2)s1 [ST059421] | 6.31 | 4 | 1.27E−07
O=[N+]([O-])c1cc(/C=N/c2ccc(S(=O)(=O)NC3NC=CS3)cc2)c2c(c1)COCO2 (stereo not drawn) [ST012941] | 6.23 | 64 | 8.12E−09
CCCCOc1ccc(C(=O)NCCC2=CCCCC2)cc1 [ST060056] | 5.38 | 4 | 4.22E−08

Structure (SMILES) | Log-reduction Colony Forming Units (ml^−1) [1] [log] | MEC [1] [µg/mL] | Minocylcine Per Cell (femtomoles cell^−1) [2] [femtomoles cell^−1]
N=C(N)NS(=O)(=O)c1ccc(/N=C/c2c(O)ccc3ccccc23)cc1 [ST012929] | 4.64 | 32 | 2.74E−08
C/C(=N\c1ccc(S(=O)(=O)Nc2nccs2)cc1)c1ccc(O)cc1O [ST012963] | 3.90 | 32 | 3.23E−08
N#CC1=C(N)n2c(s/c(=C\c3ccccc3Cl)c2=O)=C(C#N)C1c1ccccc1Cl (stereo not drawn) [ST006953] | 2.71 | 4 | 4.31E−08
CN1CCN(C(=O)CCSc2ccccc2)CC1 [ST058672] | 5.97 | 4 | 3.2E−07
O=S(=O)(Nc1nccs1)c1ccc(/N=C/c2c(O)ccc3ccccc23)cc1 [ST012934] | 4.42 | 32 | 2.28E−08
COc1ccc(C=O)cc1Cn1nnc2ccccc21 [ST033235] | 2.21 | 32 | 6.652E−08
O=S(=O)(Nc1nccs1)c1ccc(/N=C/c2cc(Cl)cc3c2OCOC3)cc1 [ST012955] | 4.42 | 32 | 1.04E−08
NS(=O)(=O)c1ccc(/N=C/c2cc(Br)ccc2O)cc1 [ST010344] | 5.29 | 32 | 2.98E−08
Cc1cccc(N(CC(=O)NC23CC4CC(CC(C4)C2)C3)S(=O)(=O)c2ccccc2)c1 [ST034012] | 2.00 | 2 | 1.55E−07
N#Cc1c(/N=C/c2ccco2)sc2c1CCCC2 [ST033063] | 1.93 | 2 | 5.84E−08
CC(C)CCOC(=O)C(NS(=O)(=O)c1ccc2c(c1)CCN2S(C)(=O)=O)c1ccccc1 (stereo not drawn) [ST058811] | 6.17 | 4 | 2.48E−07
COc1ccccc1C1N(Cc2ccccc2)CCN1Cc1ccccc1 [ST036365] | 3.50 | 4 | 3.59E−08
O=S(=O)(Nc1nccs1)c1ccc(/N=C/c2ccc3c(c2)OCO3)cc1 [ST012901] | 2.66 | 2 | 4.16E−09
Oc1ccccc1/C=N/c1nccs1 [ST009531] | 2.77 | 2 | 5.88E−09
Cc1ccc(C2N(Cc3ccccc3)CCN2Cc2ccccc2)s1 [ST008277] | 5.19 | 4 | 4.41E−08
